Test system: A431 cells
Test: Binding of FITC-labeled EGFm1 to A431 cells, flow cytometry
Format: cell-based
Experimental: • Fig. 1: Schematic representation of the strategy to isolate side-chain deaminated ligands (A) or side-chain decarboxylated ligands (B). Randomization in approach A is performed by using sets of amino acids (X) devoid of lysines or lysines and arginines. Randomization in approach B is performed by using sets of amino acids (X) devoid of aspartic acids (Asp) and glutamic acids (Glu). • Fig. 2: Schematic representation of the strategy of side-chain elimination/addition (A) or side-chain group reduction (B), both examplified for elimination or reduction of cysteine residues. In these examples randomization is performed by using sets of amino acids (X) devoid of cysteines (Cys). Both approaches can be applied equally for any other amino acid residues. • Fig. 3: Amino acid sequences of EGF of various species. The positions of lysine and arginine residues is highlighted by grey boxes. • Fig. 4: (A) IMAC purification of recombinant HisEGFm1 from bacterial periplasm. Eluted fractions were analyzed on a 20% SDS-Tricine gel (HisEGFm1 is indicated by an arrowhead). Recombinant human EGF was included as control. (B) Size exclusion chromatography of purified EGFwt and HisEGFm1 on a superose 12 column. The positions of BSA (67 kDa), Ovalbumin (43 kDa) and Myoglobin (17 kDa) are indicated by arrows. (C) Competition of binding of fdEGF to A431 by EGFwt or HisEGFm1. • Fig. 5: Binding of FITC-labeled EGFm1 to A431. A) FITC-labeled HisEGFm1 was incubated with A431 at varying concentrations and binding was analyzed by flow cytometry (0, cells without EGFm1; 1, 17 ng/ml; 2 50 ng/ml; 3, 170 ng/ml). B) Competition of FITC-labeled EGFm1 at 170 ng/ml without (1) or with (2) excess amounts of unlabelled EGFwt. C) Control experiments with BSA. • Fig. 6: (A) Binding of EGFm1 liposomes to A431 cells.
EGFwt or EGFm1 (50 µg) were diluted to a conc. of 500 µg/ml and the pH was adjusted to 9.0 with carbonate buffer pH 9.5. FITC was added at a 10-fold molar excess and incubated overnight at 4°C. […] Fluorescence intensity was determined using a fluorescence spectrophotometer (Victor^2; Wallac, Freiburg, Germany). […]

## Fluorescein-labeled EGFm1: EGFm1 labeled with fluorescein-isothiocyanate at the N-terminal amino group (NSDSECPLSHDGYCLHDGVCMYIEALDQYACNCVVGYIGERCQYSDLSWWELS; not fully specified; left off: small tags and cut ends)
Excess amounts of unlabeled EGFwt, BSA as control
  competition of binding to A431: could be competed with excess amounts of unlabeled EGFwt but not with BSA
fluorescein-labeled protein, flow cytometry
  binding to A431 reached saturation at: approximately 50 ng/ml
fluorescein-labeled protein, varying concentrations
  binding to A431 cells: strong and concentration-dependent binding

— patent EP1557429A1, “Site-directed coupling of proteins” (Vectron Therapeutics AG, priority 2004, dated 2005)
